Measured values taken from US7989479B2, “Use of a p38 kinase inhibitor for treating psychiatric disorders” (GlaxoSmithKline LLC, priority 2006, dated 2011).

What was measured:
[1] = test system: LPS induced sickness behaviour; experiment: LPS induced sickness behaviour in rats; assay type: in vivo; conditions: 20 mg/kg p.o. 1 hour before LPS (125 ug/kg i.p.), behavioural assessments 2 hours thereafter
Text: (§1) Administration of lipopolysaccharide (LPS) to rats is known to produce not only robust measures of sickness behaviour (reduced locomotor activity, reduced intake of both food and water, decreased body weight & decreased social interest) but also large elevations of peripheral pro-inflammatory cytokines and HPA-axis markers that can mimic some of the symptoms and underlying pathobiology observed in major depressive disorder (Dunn et al., (2005). Neurosci. Behav. Rev., 29, 891-909). Indeed the injection of cytokines into man produces such neuropsychiatric disturbances in non-major depressive disorder patients (Schiepers & Maes (2005). Prog. Neuro-psychopharmacol. & Biol. Psych., 29, 201-217).
(§2) 6-(5-Cyclopropylcarbamoyl-3-fluoro-2-methyl-phenyl)-N-(2,2-dimethylpropyl)-nicotinamide was administered (p.o.) 1 hour before the administration of LPS (125 ug/kg i.p.) and then behavioural assessments were performed 2 hours thereafter. A satelite group of animals were treated in the same way and blood samples taken for biomarker analysis.

[2] = test system: LPS induced elevations in TNF-a, IL-6, IL-10 and ACTH levels; experiment: LPS induced elevations of cytokines and HPA-axis markers in blood (biomarker analysis, satellite group); assay type: in vivo; conditions: rats; 20 mg/kg p.o. 1 hour before LPS (125 ug/kg i.p.); blood samples
Text: as §1, §2

Cc1c(F)cc(C(=O)NC2CC2)cc1-c1ccc(C(=O)NCC(C)(C)C)cn1 [6-(5-Cyclopropylcarbamoyl-3-fluoro-2-methyl-phenyl)-N-(2,2-dimethylpropyl)-nicotinamide]
reversal of LPS induced sickness behaviour [1]: significantly reversed | reduction in LPS induced elevation in ACTH level [2]: > 80% | reduction in LPS induced elevation in IL-6 level [2]: > 80% | reduction in LPS induced elevation in IL-10 level [2]: > 80% | reduction in LPS induced elevation in TNF-a level [2]: > 80%
